In brackets after ≈: the same amount, converted by molar mass.
How the values were obtained:
[1] = system: Cavia porcellus; experiment: Hypoglycemic activity in sc dosed guinea pig assessed as glucose lowering effect; type: functional
[2] = Toxicity in po dosed mouse; type: organism-based; conditions: in vivo
[3] = Toxicity in sc dosed mouse; type: organism-based; conditions: in vivo
[4] = system: Plasmodium falciparum; experiment: Antimalarial activity against Plasmodium falciparum CH12; type: functional, organism-based
[5] = system: Plasmodium falciparum; experiment: Antimalarial activity against Plasmodium falciparum GA3; type: functional, organism-based
[6] = Half life in po dosed human; type: ADME, organism-based; conditions: in vivo
[7] = Oral bioavailability in rat; type: ADME, organism-based; conditions: in vivo
[8] = system: Plasmodium berghei; experiment: Potency index, ratio of chloroquine ED50 to test compound ED50 for antimalarial activity against Plasmodium berghei infected in mouse; type: functional
[9] = Inhibition of Plasmodium knowlesi DHFR
[10] = system: Plasmodium berghei; experiment: Potency index, ratio of cycloguanil ED50 to test compound ED50 for antimalarial activity against Plasmodium berghei infected in mouse; type: functional
[11] = system: SW-620; experiment: Synergistic antiproliferative activity against human SW620 cells assessed as reduction in cancer stem cells preincubated for 24 hrs followed by 5-FU addition and measured after 48 hrs (reference value: 21.30 +/- 1.40 %); type: functional; parameters: scale not given: the % may be the effect or the level left
[12] = organism: Homo sapiens; experiment: Antidiabetic activity in human assessed as reduction in hepatic glucose output; type: functional; parameters: scale not given: the % may be the effect or the level left
[13] = system: MCF7; experiment: Cytotoxicity against human MCF7 cells assessed as reduction in breast cancer stem cells at 5 mM after 48 hrs (reference value: 2.78%); type: functional; parameters: scale not given: the % may be the effect or the level left
[14] = Toxicity in rat; conditions: in vivo
[15] = system: MCF7; experiment: Cytotoxicity against human MCF7 cells assessed as reduction in breast cancer stem cells at 1 mM after 48 hrs (reference value: 2.78%); type: functional; parameters: scale not given: the % may be the effect or the level left
[16] = system: Streptococcus pyogenes; experiment: Antibacterial activity against Streptococcus pyogenes; type: functional
[17] = system: Clostridium septicum; experiment: Antibacterial activity against Clostridium septicum; type: functional
[18] = system: Streptococcus; experiment: Antibacterial activity against Streptococcus beta-haemolyticus; type: functional

CCCCNC(=N)NC(=N)N [BUFORMIN] gave an MED [1] of 20 mg.

Compound N=C(N)NC(=N)NCCc1ccccc1 [PHENFORMIN] has an MED [1] of 7.5 mg.

N=C(N)/N=C(\N)N1CCOCC1 [MOROXYDINE] gave an LD50 [2] of over 6250 mg/kg and an LD50 [3] of 225 mg/kg.

For CC(C)/N=C(N)/N=C(\N)NOCCCOc1cc(Cl)c(Cl)cc1Cl, the IC50 [4] was 326 ng/mL (≈ 0.822 µM) and the IC50 [5] was 0.532 µg/mL (≈ 1.34 µM).

Work on CC(C)NC(=N)NC(=N)Nc1ccc(Cl)c(Cl)c1 [CHLORPROGUANIL] yielded a half-life [6] of 35 h.

For CC1(C)N=C(N)N=C(N)N1OCCCOc1cc(Cl)c(Cl)cc1Cl, the bioavailability [7] was at most 1% and the IC50 [4] was 0.05 ng/mL (≈ 0.000127 µM).

For CC1(C)N=C(N)N=C(N)N1OCc1ccc(Cl)c(Cl)c1 [CLOCIGUANIL], the “Ratio ED50” value [8] was 10, the EC50 [9] was 1 pM and the “Ratio ED50” value [10] was 30.

With CN(C)C(=N)NC(=N)N [METFORMIN] the Activity [11] was 15.13%, the Activity [12] was “>=75%” and the LD50 [2] was 1450 mg/kg. It also gave an Activity [13] of 1.29%, an MED [1] of 75 mg and an LD50 [14] of 1000 mg/kg. The Activity [15] was 2.2% and the LD50 [3] was 2200 mg/kg.

In the case of N=C(NC(=N)N1CCN(C(=N)NC(=N)Nc2ccc(Cl)cc2)CC1)Nc1ccc(Cl)cc1 [PICLOXYDINE], the MIC [16] is reported as 760 µg/mL (≈ 1600 µM), the MIC [17] is reported as 300 µg/mL (≈ 631 µM) and the MIC [18] is reported as 760 µg/mL (≈ 1600 µM).
